Source: US20150209315A1 (Cumberland Pharmaceuticals, priority 2009, published 2015)

Experiments:
Type in all cases: in vivo, human
[1] = test system: post-operative adult patients; experiment: Example 1: patient self-assessment of pain, VAS at rest; details: 800 mg
Procedure: Pain was measured by the patient's self-assessment using a Visual Analog Scale (VAS) from 0-10 with 0 being no pain and 10 being intense pain. This was measured both at rest and with movement. […] […] To account for the missing pain assessments, two missing value approaches as described in the statistical analysis plan were used to impute values. To determine the difference in overall pain at differing time-points, the area under the VAS pain curve during the first 24 hours, between 6 and 24 hours and between 12 and 24 hours were analyzed.

[2] = test system: post-operative adult patients; experiment: Example 2: time to GI motility, ambulation, liquid intake, solid diet, length of hospital stay; details: 800 mg; for Time to GI motility: value + SD
Procedure: To evaluate the secondary objective of determining whether the addition of IVIb reduces the incidence of opioid related side-effects, the following endpoints were measured: (a) GI motility as assessed by return of bowel sounds, flatulence, or bowel movement (b) Combined Safety Assessment (occurrence of any of the following during the 48 hour treatment period received a rating of one: diffuse pruritus, overt respiratory depression requiring treatment; the combined total and individual incidences were evaluated), need for post-operative urinary indwelling catheter (after initial removal of surgical catheter), incidence of post-operative vomiting or need for anti-emetic medication, Richmond Agitation Sedation Scale (<−3), (c) Resumption of ambulation, (d) Resumption of liquid intake and solid diet, and (e) Length of hospital stay.

[3] = test system: post-operative adult patients; experiment: Example 2: adverse events; details: 800 mg
Procedure: Patients were evaluated and compared for morphine requirements between the active doses and placebo using analysis of variance and covariance procedures at an overall alpha level of 0.05. Secondary efficacy parameters were also evaluated and compared among the treatment groups using appropriate statistical methods described in the statistical analysis section of the protocol. Safety information was compared between the treatment groups using Chi-Square or Cochran-Mantel-Haenszel test. Demographic, background and baseline information among the treatment groups was also described.

CC(C)Cc1ccc(C(C)C(=O)O)cc1 (stereo not drawn) [Ibuprofen, 2-(4-isobutylphenyl) propionic acid]
VAS Score measured at Rest (median) ([1]; EEP, 3-Hour): 5.0
VAS Score measured at Rest, % Reduction vs Placebo ([1]; EEP, 3-Hour): 0.0%
VAS Score measured at Rest (median) ([1]; EEP, 6-Hour): 5.0
VAS Score measured at Rest, % Reduction vs Placebo ([1]; EEP, 6-Hour): −25.0%
VAS Score measured at Rest (median) ([1]; EEP, 9-Hour): 3.0
VAS Score measured at Rest (median) ([1]; EEP, 12-Hour): 3.0
VAS Score measured at Rest, % Reduction vs Placebo ([1]; EEP, 12-Hour): 0.0%
VAS Score measured at Rest (median) ([1]; EEP, 15-Hour): 2.8
VAS Score measured at Rest, % Reduction vs Placebo ([1]; EEP, 15-Hour): 6.7%
VAS Score measured at Rest (median) ([1]; EEP, 18-Hour): 2.0
VAS Score measured at Rest, % Reduction vs Placebo ([1]; EEP, 18-Hour): 33.3%
VAS Score measured at Rest (median) ([1]; EEP, 21-Hour): 2.0
VAS Score measured at Rest, % Reduction vs Placebo ([1]; EEP, 21-Hour): 33.3%
VAS Score measured at Rest (median) ([1]; EEP, 24-Hour): 2.0
VAS Score measured at Rest, % Reduction vs Placebo ([1]; EEP, 24-Hour): 33.3%
VAS Score measured at Rest (median) ([1]; EEP, 27-Hour): 2.3
VAS Score measured at Rest (median) ([1]; EEP, 30-Hour): 2.4
VAS Score measured at Rest, % Reduction vs Placebo ([1]; EEP, 30-Hour): 14.3%
VAS Score measured at Rest (median) ([1]; EEP, 33-Hour): 2.3
VAS Score measured at Rest, % Reduction vs Placebo ([1]; EEP, 33-Hour): 28.1%
VAS Score measured at Rest (median) ([1]; EEP, 36-Hour): 2.2
VAS Score measured at Rest, % Reduction vs Placebo ([1]; EEP, 36-Hour): 15.4%
VAS Score measured at Rest (median) ([1]; EEP, 39-Hour): 2.7
VAS Score measured at Rest, % Reduction vs Placebo ([1]; EEP, 39-Hour): −50.0%
VAS Score measured at Rest (median) ([1]; EEP, 42-Hour): 1.8
VAS Score measured at Rest, % Reduction vs Placebo ([1]; EEP, 42-Hour): 10.0%
VAS Score measured at Rest (median) ([1]; EEP, 45-Hour): 2.0
VAS Score measured at Rest, % Reduction vs Placebo ([1]; EEP, 45-Hour): 4.8%
VAS Score measured at Rest (median) ([1]; EEP, 48-Hour): 1.1
VAS Score measured at Rest (median) ([1]; ITT, 1-Hour): 7.0
VAS Score measured at Rest, % Reduction vs Placebo ([1]; ITT, 1-Hour): 0.0%
VAS Score measured at Rest (median) ([1]; ITT, 2-Hour): 5.7
VAS Score measured at Rest, % Reduction vs Placebo ([1]; ITT, 2-Hour): 6.6%
VAS Score measured at Rest (median) ([1]; ITT, 3-Hour): 5.0
VAS Score measured at Rest, % Reduction vs Placebo ([1]; ITT, 3-Hour): 0.0%
VAS Score measured at Rest (median) ([1]; ITT, 6-Hour): 4.0
VAS Score measured at Rest, % Reduction vs Placebo ([1]; ITT, 6-Hour): 0.0%
VAS Score measured at Rest (median) ([1]; ITT, 9-Hour): 3.0
VAS Score measured at Rest (median) ([1]; ITT, 12-Hour): 2.9
VAS Score measured at Rest, % Reduction vs Placebo ([1]; ITT, 12-Hour): 3.3%
VAS Score measured at Rest (median) ([1]; ITT, 15-Hour): 2.6
VAS Score measured at Rest, % Reduction vs Placebo ([1]; ITT, 15-Hour): 21.2%
VAS Score measured at Rest (median) ([1]; ITT, 18-Hour): 2.0
VAS Score measured at Rest, % Reduction vs Placebo ([1]; ITT, 18-Hour): 33.3%
VAS Score measured at Rest (median) ([1]; ITT, 21-Hour): 2.0
VAS Score measured at Rest, % Reduction vs Placebo ([1]; ITT, 21-Hour): 42.9%
VAS Score measured at Rest (median) ([1]; ITT, 24-Hour): 2.0
VAS Score measured at Rest, % Reduction vs Placebo ([1]; ITT, 24-Hour): 33.3%
VAS Score measured at Rest (median) ([1]; ITT, 27-Hour): 2.2
VAS Score measured at Rest (median) ([1]; ITT, 30-Hour): 2.3
VAS Score measured at Rest, % Reduction vs Placebo ([1]; ITT, 30-Hour): 14.8%
VAS Score measured at Rest (median) ([1]; ITT, 33-Hour): 2.3
VAS Score measured at Rest, % Reduction vs Placebo ([1]; ITT, 33-Hour): 28.1%
VAS Score measured at Rest (median) ([1]; ITT, 36-Hour): 2.2
VAS Score measured at Rest, % Reduction vs Placebo ([1]; ITT, 36-Hour): 15.4%
VAS Score measured at Rest (median) ([1]; ITT, 39-Hour): 2.7
VAS Score measured at Rest, % Reduction vs Placebo ([1]; ITT, 39-Hour): −50.0%
VAS Score measured at Rest (median) ([1]; ITT, 42-Hour): 1.9
VAS Score measured at Rest, % Reduction vs Placebo ([1]; ITT, 42-Hour): 5.0%
VAS Score measured at Rest (median) ([1]; ITT, 45-Hour): 1.9
VAS Score measured at Rest, % Reduction vs Placebo ([1]; ITT, 45-Hour): 5.0%
VAS Score measured at Rest (median) ([1]; ITT, 48-Hour): 1.3
VAS Score measured at Rest, % Reduction vs Placebo ([1]; ITT, 48-Hour): 13.3%
Length of hospital stay ([2]; EEP): 62.8 ± 21.58
Time to ambulation ([2]; EEP): 23.5 ± 0.53 h
Time to liquid intake ([2]; EEP): 12.4 ± 0.89
Time to solid diet ([2]; EEP): 39.1 ± 1.42 h
Time to GI motility ([2]; EEP): 9.2+0.90 hours
Length of hospital stay ([2]; ITT): 62.4 ± 21.01
Time to ambulation ([2]; ITT): 23.4 ± 0.50 h
Time to liquid intake ([2]; ITT): 12.1 ± 0.83
Time to solid diet ([2]; ITT): 41.0 ± 2.46 h
Time to ambulation ([2]; ITT, listed as IV Ibuprofen): significantly improved time to ambulation
Time to GI motility ([2]; ITT): 9.4+0.87 hours
patients experiencing adverse events or serious adverse events vs placebo [3]: no significant differences in the number of patients experiencing adverse events or serious adverse events between groups
